Results on four molecules are retold here after ChEMBL document CHEMBL2424647, “Molecular docking studies of the interaction between propargylic enol ethers and human DNA topoisomerase IIα” (2013).

Format in all cases: functional
For test [1], the system named is HBL-100. In words: Growth inhibition of human HBL100 after 48 hrs. As to conditions: HBL-100, 48 h.
The test system of test [2] is WiDr. The test is described as follows: Growth inhibition of human WiDr after 48 hrs.
Test [3] has as its system HeLa. In words: Growth inhibition of human HeLa after 48 hrs.
In test [4] the test system is SW1573. The test is described as follows: Growth inhibition of human SW1573 after 48 hrs. The settings on record: SW1573, 48 h.

Take `CCCCC[C@@H](C#CC(=O)OC)O/C=C/C(=O)OC`: the GI50 in test [1] is 2.3 µM; in test [2] it was 24 µM; in test [3], 2.9 µM; in test [4] it was 8.4 µM.
Taken in the same sequence, the figures for `CCCCC[C@H](C#CC(=O)OC)O/C=C/C(=O)OC` were 3.3 µM, 26 µM, 2.6 µM and 5.5 µM.
For `CCCCCC(C#CC(=O)OC)O/C=C/C(=O)OC` (racemic) the same measures were 2.7 µM, 13 µM, 17 µM and 1.3 µM.
As to `CCCCC(C#CC(=O)OC)O/C=C/C(=O)OC` (racemic), the GI50 in test [1] turned out to be 0.47 µM; in test [2], 3.6 µM; in test [3] it was 3.4 µM; in test [4], 0.42 µM.

The GI50 is the concentration that inhibits growth by half.
